Assay results reported in PMC7506137, “Selective Phosphodiesterase 1 Inhibitor BTTQ Reduces Blood Pressure in Spontaneously Hypertensive and Dahl Salt Sensitive Rats: Role of Peripheral Vasodilation” (Frontiers in Physiology, 2020).
“And” between values parts separate entries of the source, which are not always exact repeats. Equal values may be shown once.

How the values were obtained:
[1] = Fraction unbound in rat plasma; format: in vitro ADME; details: read-out: FU Value (FU Plasma Exp Rat)
Description: Supplement Table_2.xlsx, sheet "Supplementary table 2"

[2] = test system: Spontaneous Hypertensive rats (SHR); experiment: Rat telemetry, blood pressure and heart rate; format: in vivo
Description: (§1) Male Sprague Dawley (Taconic Biosciences) rats, Spontaneous Hypertensive rats (Charles River Laboratories, United States), and Dahl Salt Sensitive rats (Medical College of Wisconsin) were implanted with transmitters (HD S10; Data Science International) for collection of BP and heart rate (HR) data. The transmitters are capable of transmitting a BP signal via a pressure catheter inserted into the abdominal aorta. Initially, a baseline was established and recorded. Each rat was then removed from its recording cage and was dosed by p.o. gavage with vehicle or compound and the animals were then returned to the recording cage. Data sampling for BP and HR was carried out in intervals at selected time points for the duration of the experiment.
(§2) All data in this manuscript were presented as mean ± SEM with a significance level of p < 0.05, and n represents the number of individual animals. The significance of differences in concentration-response curves in the ear temperature and, myograft study were calculated using t-test, compare to the vehicle group. The EC50 was calculated using GraphPad Prism 8.3 using a 4-parameter logistic non-linear curve fit model. Single-dose rat telemetry data for normal and SHR rats and repeat-dose telemetry data in Dahls salt-sensitive rats were analyzed by two-way repeated measures ANOVA. Treatment group main effects were compared by Tukey’s HSD method. All telemetry data were analyzed with GraphPad Prism 8.3.

Sprague Dawley rats [3] = experiment: Rat telemetry, blood pressure and heart rate; format: in vivo
Description: as §1, §2

Dahl Salt Sensitive rats = experiment: Rat telemetry, blood pressure and heart rate; format: in vivo
Description: as §1, §2

Sprague Dawley rats [4] = experiment: Rat ear temperature (vasodilation); format: in vivo
Method: Male Sprague Dawley rats at 6 to 7 weeks were dosed orally by p.o. gavage with different doses of BTTQ formulated in 1% hydroxyethlycellulose (Dow Corning, Midland, MI, United States) (w/v), 0.25% polysorbate 80 (Sigma-Aldrich, St. Louis, MO, United States) (v/v), and 0.05% antifoam (v/v; Dow Corning, Midland, MI, United States) in purified water. Following dosing, ear temperature was measured by using a k-type thermocouple probe digital thermometer (Cole Parmer) every hour for 6 h and then at 24 h. Blood samples for plasma exposure measurement were obtained at the same time. Blood was collected via a tail snip directly into a 20-μL EDTA-coated capillary and immediately spotted onto a Whatman DMPK-C DBS card (GE Healthcare Bio-Sciences). Tail snips were performed by removing approximately 1 mm of the tail by using a scalpel. Blood flow was initiated by gentle squeezing of the tail. No analgesia or anesthesia was used during blood collections. A single sample and spot were collected per time point. The DBS cards were allowed to dry for approximately 2 h at room temperature, after which the cards were placed in a zip-top bag, stored, and shipped at ambient temperature.
as §2

Human PDE1C = target: T1, Human PDE1C (Homo sapiens, UniProt Q14123); experiment: PDE scintillation proximity enzyme assay; format: biochemical; details: geometric mean (SD, n)
T1 construct: made in house; host or cells: baculovirus-infected insect cells
Method: (§3) All PDE proteins were expressed in baculoviral infected insect cells using standard methods [pFastBac, pFastBac Dual (Invitrogen), pIEX4 (Novagen)]. See Supplementary Table 1 for DNA sequences, construct boundaries, affinity tags, and expression vectors. HIS6 tagged PDE proteins were purified using Ni-NTA agarose (Qiagen) followed by size exclusion chromatography on a Superdex 200 column (GE Healthcare) in storage buffer (20 mM Tris-HCl, pH 7.5, 150 mM NaCl, 10% Glycerol). FLAG-tagged PDE proteins including the PDE6A/6B heterodimer were purified using anti-FLAG M2-agarose (Sigma-Aldrich), after purification through NiNTA column chromatography and eluted in storage buffer (50 mM Tris-HCl, pH 7.5, 150 mM NaCl, 10% Glycerol, 0.1 mg/ml Flag peptide). All purified proteins were stored at −80°C in small aliquots.
(§4) All PDE enzyme activities were measured with a yittrium silicate based scintillation proximity assay that detects radioactive nucleotide monophosphates but not cyclic monophosphates. Assays are conducted in a total volume of 50 μl in 384 well plates (3706, Corning): comprised of 24 μl enzyme, 1 μl compound, and 25 μl of cyclic nucleotide. The general assay buffer consists of 50 mM Tris-HCl (pH 7.5) and 0.1% (w/v) bovine serum albumin (Fatty Acid Free, Sigma-Aldrich). Enzyme concentrations, substrate concentrations, and various PDE-specific buffer additives are described in Supplementary Table 1. Compounds to be tested are diluted in pure dimethyl sulfoxide (DMSO) using 10-point concentration-response curves, and 1 μl is acoustically dispensed into assay plates using the Echo555 (LabCyte). Maximal compound concentration in the reaction mixture is either 10 or 100 μM. Compounds at the appropriate concentration are pre-incubated with either of the PDE enzymes for 30 min before the reaction is started by the addition of substrate ([8-^3H]-cAMP, 20.7 Ci/mmol or [8-^3H]-cGMP; 6.5 Ci/mmol, Perkin Elmer). Reactions are allowed to proceed for 60 min at room temperature before quenching. Next, reactions are stopped by the addition of 400 μg/per well SPA beads (RPNQ0150, Perkin Elmer) and a potent non-selective PDE inhibitor to quench the reaction. Bead bound radioactivity (product) is quantified 12 h later a Microbeta counter (Perkin Elmer). Data is normalized to % inhibition using standard methods ([Campbell et al., 2004]), and IC50 values were plotted using PRISM (GraphPad Software) using the 4 parameter logistic equation ([Campbell et al., 2004]). Data for potency values are expressed as the geometric mean and arithmetic standard deviation.

Human PDE11A = target: T2, Human PDE11A (Homo sapiens, UniProt Q9HCR9); experiment: PDE scintillation proximity enzyme assay; format: biochemical; details: geometric mean (SD, n)
T2 construct: made in house; host or cells: baculovirus-infected insect cells
Method: as §3, §4

Human PDE7B = target: T3, Human PDE7B (Homo sapiens, UniProt Q9NP56); experiment: PDE scintillation proximity enzyme assay; format: biochemical; details: geometric mean (SD, n)
T3 construct: made in house; host or cells: baculovirus-infected insect cells
Method: as §3, §4

Human PDE1B = target: T4, Human PDE1B (Homo sapiens, UniProt Q01064); experiment: PDE scintillation proximity enzyme assay; format: biochemical; details: geometric mean (SD, n)
T4 construct: made in house; host or cells: baculovirus-infected insect cells
Method: as §3, §4

Human PDE1A = target: T5, Human PDE1A (Homo sapiens, UniProt P54750); experiment: PDE scintillation proximity enzyme assay; format: biochemical; details: geometric mean (SD, n)
T5 construct: made in house; host or cells: baculovirus-infected insect cells
Method: as §3, §4

Human PDE4D = target: T6, Human PDE4D (Homo sapiens, UniProt Q08499); experiment: PDE scintillation proximity enzyme assay; format: biochemical; details: geometric mean (SD, n)
T6 construct: made in house; host or cells: baculovirus-infected insect cells
Method: as §3, §4

[5] = 3 mg/kg twice daily oral for 21 days, high salt (4%) diet

T4 sequence (Q01064 whole entry): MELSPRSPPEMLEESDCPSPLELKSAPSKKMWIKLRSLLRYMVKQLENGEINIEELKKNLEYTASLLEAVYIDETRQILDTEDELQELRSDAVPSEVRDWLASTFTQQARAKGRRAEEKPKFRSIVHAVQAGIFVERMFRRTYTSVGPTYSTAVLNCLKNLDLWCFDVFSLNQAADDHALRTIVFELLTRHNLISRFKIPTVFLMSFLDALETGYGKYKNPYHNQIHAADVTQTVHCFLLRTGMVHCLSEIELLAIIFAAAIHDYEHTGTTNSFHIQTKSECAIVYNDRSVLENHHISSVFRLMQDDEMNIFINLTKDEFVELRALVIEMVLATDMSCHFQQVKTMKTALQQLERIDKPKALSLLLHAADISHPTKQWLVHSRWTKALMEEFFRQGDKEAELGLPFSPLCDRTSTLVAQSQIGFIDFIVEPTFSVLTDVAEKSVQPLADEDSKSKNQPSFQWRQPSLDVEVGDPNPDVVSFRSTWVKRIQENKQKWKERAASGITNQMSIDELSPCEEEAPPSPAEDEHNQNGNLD
T6 sequence (Q08499 whole entry): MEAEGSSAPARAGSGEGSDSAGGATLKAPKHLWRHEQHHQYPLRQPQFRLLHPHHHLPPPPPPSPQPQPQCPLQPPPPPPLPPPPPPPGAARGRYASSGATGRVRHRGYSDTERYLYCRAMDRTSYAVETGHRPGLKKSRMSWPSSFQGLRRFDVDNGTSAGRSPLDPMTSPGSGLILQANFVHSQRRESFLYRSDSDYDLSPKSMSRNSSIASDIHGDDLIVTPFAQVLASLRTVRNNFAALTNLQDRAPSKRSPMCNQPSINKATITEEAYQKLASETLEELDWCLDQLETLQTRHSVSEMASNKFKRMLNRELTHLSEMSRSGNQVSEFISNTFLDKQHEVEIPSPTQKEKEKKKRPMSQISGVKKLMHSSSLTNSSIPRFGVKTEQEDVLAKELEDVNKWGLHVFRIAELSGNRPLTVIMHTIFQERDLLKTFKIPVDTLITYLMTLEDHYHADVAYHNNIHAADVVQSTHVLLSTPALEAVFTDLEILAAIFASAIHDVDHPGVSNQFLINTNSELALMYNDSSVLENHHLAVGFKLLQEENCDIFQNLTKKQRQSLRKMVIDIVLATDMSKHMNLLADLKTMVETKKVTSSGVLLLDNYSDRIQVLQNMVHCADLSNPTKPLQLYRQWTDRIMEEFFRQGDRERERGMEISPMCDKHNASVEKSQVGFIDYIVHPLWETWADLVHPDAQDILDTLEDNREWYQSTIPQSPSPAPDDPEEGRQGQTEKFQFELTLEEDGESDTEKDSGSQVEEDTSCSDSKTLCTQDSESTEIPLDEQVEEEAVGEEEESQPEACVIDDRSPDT
T1 sequence (Q14123 whole entry): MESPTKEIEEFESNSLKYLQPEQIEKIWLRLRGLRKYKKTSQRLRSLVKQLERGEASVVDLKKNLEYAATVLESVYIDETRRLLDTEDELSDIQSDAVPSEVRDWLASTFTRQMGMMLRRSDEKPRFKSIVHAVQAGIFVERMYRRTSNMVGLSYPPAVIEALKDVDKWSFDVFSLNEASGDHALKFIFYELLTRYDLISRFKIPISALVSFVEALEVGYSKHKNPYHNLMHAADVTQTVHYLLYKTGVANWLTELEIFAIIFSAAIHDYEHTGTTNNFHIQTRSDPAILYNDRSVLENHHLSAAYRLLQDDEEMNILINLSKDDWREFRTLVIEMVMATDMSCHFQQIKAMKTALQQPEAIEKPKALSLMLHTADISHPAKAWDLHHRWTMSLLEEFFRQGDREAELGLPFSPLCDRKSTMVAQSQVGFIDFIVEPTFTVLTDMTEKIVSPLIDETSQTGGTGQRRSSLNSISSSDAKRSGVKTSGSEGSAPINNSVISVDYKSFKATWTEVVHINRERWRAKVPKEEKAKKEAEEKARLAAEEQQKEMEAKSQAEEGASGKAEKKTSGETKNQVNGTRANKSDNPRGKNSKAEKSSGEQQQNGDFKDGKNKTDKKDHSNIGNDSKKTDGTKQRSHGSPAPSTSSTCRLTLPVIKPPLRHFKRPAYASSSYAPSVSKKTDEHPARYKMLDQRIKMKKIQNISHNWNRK
T3 sequence (Q9NP56 whole entry): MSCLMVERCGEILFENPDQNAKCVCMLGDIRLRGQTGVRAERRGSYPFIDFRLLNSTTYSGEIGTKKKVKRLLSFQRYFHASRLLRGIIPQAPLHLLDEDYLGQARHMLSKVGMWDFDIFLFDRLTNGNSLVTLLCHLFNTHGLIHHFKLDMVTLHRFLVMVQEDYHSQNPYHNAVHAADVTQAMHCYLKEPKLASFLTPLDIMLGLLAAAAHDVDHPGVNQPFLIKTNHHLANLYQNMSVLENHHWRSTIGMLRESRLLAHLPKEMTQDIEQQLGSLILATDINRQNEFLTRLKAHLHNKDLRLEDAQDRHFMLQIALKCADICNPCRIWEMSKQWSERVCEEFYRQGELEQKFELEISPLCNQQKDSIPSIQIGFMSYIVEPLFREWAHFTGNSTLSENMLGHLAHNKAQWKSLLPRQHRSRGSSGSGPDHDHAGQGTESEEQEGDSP
T2 sequence (Q9HCR9 whole entry): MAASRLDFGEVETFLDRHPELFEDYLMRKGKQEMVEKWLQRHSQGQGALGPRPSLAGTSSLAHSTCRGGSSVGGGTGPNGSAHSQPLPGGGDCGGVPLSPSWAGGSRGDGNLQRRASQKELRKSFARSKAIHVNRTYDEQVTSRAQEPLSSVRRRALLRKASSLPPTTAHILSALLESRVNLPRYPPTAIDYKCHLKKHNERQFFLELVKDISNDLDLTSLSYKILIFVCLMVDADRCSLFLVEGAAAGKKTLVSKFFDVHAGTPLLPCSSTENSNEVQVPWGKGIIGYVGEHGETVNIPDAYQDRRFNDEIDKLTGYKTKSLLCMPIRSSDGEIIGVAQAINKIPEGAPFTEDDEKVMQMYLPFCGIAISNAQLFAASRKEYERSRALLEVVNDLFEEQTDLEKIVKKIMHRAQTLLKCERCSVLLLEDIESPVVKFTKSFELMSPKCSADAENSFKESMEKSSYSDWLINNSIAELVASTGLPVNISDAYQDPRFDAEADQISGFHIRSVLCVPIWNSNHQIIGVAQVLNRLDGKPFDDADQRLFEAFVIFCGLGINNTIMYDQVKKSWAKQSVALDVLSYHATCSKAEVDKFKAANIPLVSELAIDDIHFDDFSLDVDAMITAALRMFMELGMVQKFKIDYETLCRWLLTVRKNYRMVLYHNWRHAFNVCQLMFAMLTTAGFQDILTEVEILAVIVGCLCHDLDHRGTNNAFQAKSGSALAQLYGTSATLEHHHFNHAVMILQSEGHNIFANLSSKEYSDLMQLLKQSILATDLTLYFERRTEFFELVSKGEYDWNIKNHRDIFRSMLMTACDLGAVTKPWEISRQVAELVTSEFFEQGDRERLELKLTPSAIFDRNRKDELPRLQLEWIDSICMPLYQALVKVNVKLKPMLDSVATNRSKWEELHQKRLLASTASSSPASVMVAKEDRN
T5 sequence (P54750 whole entry): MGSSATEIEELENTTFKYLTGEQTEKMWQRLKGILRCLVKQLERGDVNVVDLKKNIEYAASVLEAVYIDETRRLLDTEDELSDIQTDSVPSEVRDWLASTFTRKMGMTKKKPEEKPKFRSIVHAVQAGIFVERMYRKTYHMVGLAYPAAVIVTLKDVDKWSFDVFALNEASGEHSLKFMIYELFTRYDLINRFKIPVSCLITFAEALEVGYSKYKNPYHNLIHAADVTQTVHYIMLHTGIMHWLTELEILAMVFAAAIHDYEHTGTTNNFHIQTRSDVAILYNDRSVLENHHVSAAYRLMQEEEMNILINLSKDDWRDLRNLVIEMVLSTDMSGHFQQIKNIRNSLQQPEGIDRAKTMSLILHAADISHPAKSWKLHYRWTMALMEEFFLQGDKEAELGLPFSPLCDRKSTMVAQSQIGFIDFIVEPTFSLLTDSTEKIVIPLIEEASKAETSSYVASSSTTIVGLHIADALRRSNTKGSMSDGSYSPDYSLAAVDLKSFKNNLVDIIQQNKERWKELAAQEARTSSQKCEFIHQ

For O=c1c2nnc(C3(C4CC4)CC3)n2c2c(n1CC1CC1)CCCC2 [BTTQ, 1-[1,1′-bi(cyclopropyl)-1-yl]-5-(cyclopropylmethyl)-6,7,8,9-tetrahydro[1,2,4]triazolo[4,3-A]quinoxaline-4(5H)-one], the fraction unbound [1] was 0.053, the “effect on BP” value ([2]; 0.03 mg/kg twice daily oral) was “did not show any effect” and the “effect on HR” value ([2]; 0.03 mg/kg twice daily oral) was “did not show any effect”. For the same molecule, the MAP ([2]; 0.03, 0.1, 0.3, 1, and 3 mg/kg twice daily oral, 24 h telemetry) was “dose-dependent decrease”, the heart rate ([2]; 0.03-3 mg/kg twice daily oral) was “dose-dependent increase” and the “additional blood pressure lowering” value ([2]; BTTQ administered on top of ACE inhibitor) was “about 22 mmHg”. For the same molecule, the “lowering of blood pressure compared to the vehicle-treated group” value ([2]; SHR) was ~36 mmHg, the heart rate (Sprague Dawley rats [3]; 1 and 3 mg/kg twice daily oral) was “dose-dependent increase” and the “immediate decrease in MAP compared to the vehicle” value (Sprague Dawley rats [3]; 1 and 3 mg/kg twice daily oral (both groups), within 1 h of the first dose) was “about 5 mmHg”. The “time after second dose at which BP-lowering effect returned to baseline” value (Sprague Dawley rats [3]; high dose group (3 mg/kg twice daily oral)) was 7 h, the “lowering of blood pressure compared to the vehicle-treated group” value (Sprague Dawley rats [3]; normal Sprague Dawley rats) was “about 9 mmHg” and the “MAP compared to the vehicle-treated group” value (Dahl Salt Sensitive rats; [5]) was “profound reduction”. The heart rate (Dahl Salt Sensitive rats; [5]) was “elevation of heart rate”, the “lowering of blood pressure compared to the vehicle-treated group” value (Dahl Salt Sensitive rats; Dahl salt-sensitive rats) was ~24 mmHg and the “increase of ear temperature compared to the vehicle control” value (Sprague Dawley rats [4]; 3 mg/kg single oral dose, within 1 h) was 14%. The ear temperature (Sprague Dawley rats [4]; 0.1, 0.3, and 1 mg/kg single oral dose) was “significant dose-dependent increase”, the ED50 (Sprague Dawley rats [4]; Rattus norvegicus, single oral dose, 1 h time point, four parametric logistic equation, read-out: median effective dose (ED50), ear temperature) was 0.14 mg/kg and the “time at which ear temperature returned to baseline” value (Sprague Dawley rats [4]; all doses, single oral dose) was 6 h. The “time for which the increase in ear temperature stayed significant” value (Sprague Dawley rats [4]; single oral dose) was “up to 3 h”, the IC50 (Human PDE1C) was 0.14 nM and the IC50 (Human PDE11A) was 2400 nM. The IC50 (Human PDE7B) was 1600 nM, the IC50 (Human PDE1B) was 0.5 nM and 0.45 nM and the IC50 (Human PDE1A) was 1 nM. For the same molecule, the IC50 (Human PDE4D) was 12000 nM.
